Test results from PubChem BioAssay (NCI).
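The compound was tested at five concentrations on cells cultured in 96-well plates, with a 48-hour exposure period. TGI is the concentration that stops growth completely.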

Tests used:
Assay in all cases: NCI anticancer screen, dose series, 48 h
[1] = tested on: MOLT-4 leukemia
[2] = tested on: LOX IMVI melanoma
[3] = tested on: HT29 colon
[4] = tested on: SK-OV-3 ovarian
[5] = tested on: CAKI-1 renal
[6] = tested on: NCI/ADR-RES ovarian
[7] = tested on: SN12C renal
[8] = tested on: SK-MEL-5 melanoma
[9] = tested on: OVCAR-8 ovarian
[10] = tested on: U251 CNS
[11] = tested on: BT-549 breast
[12] = tested on: HS 578T breast
[13] = tested on: T-47D breast
[14] = tested on: NCI-H23 lung
[15] = tested on: MDA-MB-435
[16] = tested on: HCT-116 colon
[17] = tested on: SR leukemia
[18] = tested on: SNB-19 CNS
[19] = tested on: A498 renal
[20] = tested on: RXF 393 renal
[21] = tested on: HOP-62 NSCLC
[22] = tested on: NCI-H226 lung
[23] = tested on: UO-31 renal
[24] = tested on: IGROV1 ovarian
[25] = tested on: OVCAR-4 ovarian
[26] = tested on: NCI-H460 lung
[27] = tested on: NCI-H522 lung
[28] = tested on: SF-295 CNS
[29] = tested on: SF-539 CNS
[30] = tested on: KM12 colon
[31] = tested on: OVCAR-5 ovarian
[32] = tested on: 786-0 renal
[33] = tested on: K-562 leukemia
[34] = tested on: SW-620 colon
[35] = tested on: SNB-75 CNS
[36] = tested on: HOP-92 NSCLC
[37] = tested on: MDA-N
[38] = tested on: MCF7 breast
[39] = tested on: OVCAR-3 ovarian
[40] = tested on: HL-60(TB) leukemia
[41] = tested on: CCRF-CEM leukemia
[42] = tested on: SK-MEL-28 melanoma
[43] = tested on: HCC-2998 colon
[44] = tested on: UACC-257 melanoma
[45] = tested on: HCT-15 colon
[46] = tested on: MDA-MB-231 breast
[47] = tested on: DU-145 prostate
[48] = tested on: EKVX NSCLC
[49] = tested on: UACC-62 melanoma
[50] = tested on: COLO 205 colon
[51] = tested on: ACHN renal
[52] = tested on: RPMI-8226 leukemia
[53] = tested on: MALME-3M melanoma
[54] = tested on: PC-3 prostate
[55] = tested on: SK-MEL-2 melanoma
[56] = tested on: M14 melanoma
[57] = tested on: TK-10 renal
[58] = tested on: A549 NSCLC
[59] = tested on: SF-268 CNS

Measured: TGI

Cc1ccc(S(=O)(=O)NNC(=O)c2cc(C)c(C)cc2N)cc1
not listed: [55] | [56] | [57] | [58] | [59]
> 100 µM: all other assays above

COc1ccc(C2SCC(=O)N2NC(=O)c2ccc(NC(C)=O)cc2)cc1 (stereo not given)
89.2 µM: [36]
not listed: [2] | [5] | [17] | [27] | [40] | [41] | [53] | [54]
> 100 µM: all other assays above
